The values that follow come from patent US6395745B1, “Alkaloid halide salts of swainsonine and methods of use” (priority 1997, dated 2002).

SMILES strings stand for the structures.

This assay deals with T1, Golgi mannosidase II in MDAY-D2 tumor cells (Mus musculus, UniProt P27046).
T1 construct: endogenous in cells; host or cells: MDAY-D2 tumor cells
T1 sequence (P27046 1-1150): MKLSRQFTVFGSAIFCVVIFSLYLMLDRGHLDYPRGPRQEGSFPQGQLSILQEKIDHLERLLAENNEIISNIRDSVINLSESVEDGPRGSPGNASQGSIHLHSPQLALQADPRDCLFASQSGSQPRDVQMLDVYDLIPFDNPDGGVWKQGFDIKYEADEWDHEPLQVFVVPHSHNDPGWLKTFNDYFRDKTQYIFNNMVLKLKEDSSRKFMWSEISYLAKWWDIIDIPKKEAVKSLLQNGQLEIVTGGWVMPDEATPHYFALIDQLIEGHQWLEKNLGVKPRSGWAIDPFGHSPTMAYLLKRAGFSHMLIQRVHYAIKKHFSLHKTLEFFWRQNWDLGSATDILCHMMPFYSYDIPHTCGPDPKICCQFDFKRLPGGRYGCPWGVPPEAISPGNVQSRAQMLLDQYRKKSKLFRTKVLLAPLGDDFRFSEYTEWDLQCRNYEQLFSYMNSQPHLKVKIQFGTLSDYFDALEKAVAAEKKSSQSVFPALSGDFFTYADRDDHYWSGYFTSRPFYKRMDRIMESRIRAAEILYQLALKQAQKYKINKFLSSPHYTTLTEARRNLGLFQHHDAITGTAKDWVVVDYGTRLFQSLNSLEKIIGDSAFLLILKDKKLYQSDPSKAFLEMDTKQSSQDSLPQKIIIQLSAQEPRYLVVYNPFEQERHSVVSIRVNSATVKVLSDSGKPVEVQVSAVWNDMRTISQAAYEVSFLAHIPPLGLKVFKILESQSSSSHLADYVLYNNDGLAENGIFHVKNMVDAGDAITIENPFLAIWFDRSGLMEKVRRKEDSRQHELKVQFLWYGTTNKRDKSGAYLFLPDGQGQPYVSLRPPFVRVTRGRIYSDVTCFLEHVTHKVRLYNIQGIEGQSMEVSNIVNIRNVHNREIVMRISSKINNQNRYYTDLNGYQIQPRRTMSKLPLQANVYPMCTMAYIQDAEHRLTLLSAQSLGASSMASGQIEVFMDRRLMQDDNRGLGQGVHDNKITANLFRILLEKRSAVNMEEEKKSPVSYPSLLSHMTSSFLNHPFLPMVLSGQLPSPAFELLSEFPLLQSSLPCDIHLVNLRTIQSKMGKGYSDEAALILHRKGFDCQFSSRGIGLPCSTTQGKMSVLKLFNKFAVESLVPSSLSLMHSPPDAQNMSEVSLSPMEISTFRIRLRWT
Briefly: L-PHA cell assay for inhibition of mannosidase II in cells (alkaline phosphatase readout). The class given is cell-based, murine. The method, then: The test compound swainsonine hydrochloride is prepared by 0.5 serial dilution of a 40 μM stock in 50 μl of 5% fetal bovine serum (FBS) in minimum essential medium (MEM). To 50 μl of diluted test samples in 96 well plates, 10,000 MDAY-D2 tumor cells in 50 μl of 5% FBS in MEM is added to each well. The samples are incubated at 37° C. overnight in a 5% CO2 incubator. Test wells are prepared in duplicate for the addition of 25 μl/well of either 5% FBS in MEM or 5% FBS in MEM containing 100 μg/ml of L-PHA. Samples are again incubated at 37° C. overnight in a 5% CO2 incubator. The viability and/or proliferation of the cells in each well is measured using phenazine methylsulfate (PMS) and (3(4,5-dimethylthiazol-2-yl-5-(3-carboxymethoxyphenyl)-2,4,sulfophenyl)-2H tetrazolium salt (“MTS”) as described in the instructions of the Promega CellTiter 96 AQ kit. The absorption is read at 490 nm. The loss of L-PHA toxicity is directly related to entry of the drug into the cells and to inhibition of Golgi mannosidase II, and loss of L-PHA binding carbohydrate structures on the cells surface.
Cells. […]
Alkaline Phosphatase Assay. […] After 15-30 min of colour development, absorbance of the chromogenic product para-nitrophenol was measured at […] using a multiwell scanning photometer (Thermomax Multiplate Reader, Molecular Devices). […]

In general, IC50 refers to the point on the concentration scale where inhibition reaches its midpoint. Lower therefore signals inhibition by little substance.

The molecule `Cl.O[C@H]1[C@H]2[C@H](O)CCCN2C[C@@H]1O` [swainsonine hydrochloride, (−)-(1S,2S,8R,8aR)-1,2,8-trihydroxyoctahydro-indolizidine hydrochloride salt] returned an IC50 of 57 ± 10 nM.
